Columns and labels:
Aβ40 = target: T1, Aβ40 (Homo sapiens, UniProt P05067); experiment: Short term treatment of TgCRND8 mice: Aβ40 levels in plasma and brain (ELISA); assay type: in vivo, Mouse; conditions: for Aβ40 Change Insoluble / Aβ40 Change Soluble: brain homogenate; for Aβ40 Change: plasma, TgCRND8 mice
T1 construct: from tissue; host or cells: plasma and brain homogenate of TgCRND8 transgenic mice (hAPP transgene)
Text: (§1) Transgenic mice, […]8, expressing the human amyloid precursor protein (hAPP) develop a pathology resembling Alzheimer's disease. In particular, high levels of Aβ40 and Aβ42 have been documented in the plasma and the brain of these animals at 8-9 weeks of age, followed by early accumulation of amyloid plaques similar to the senile plaques observed in […]. These animals also display progressive cognitive deficits that parallel the appearance of degenerative changes. See, […], et al., J. Biol. Chem. 276, 21562-70 (2001). The short term therapeutic effect of 19 compounds of the invention was studied. […] The following abbreviations are used to designate these animals from the 3rd and 4th generation backcross in the present protocol: TgCRND8-2.B6C3F1 (N3); TgCRND8-2.B6C3F1 (N4). Baseline animals (Group 1) consisted of naive TgCRND8-2.B6C3F1(N3) at 11±1 weeks of age. These mice were used to determine the Aβ levels in the plasma and brain of naive transgenic animals at the initiation of treatment. […] At the end of the treatment periods, plasma and perfused brains were collected for quantification of Aβ levels. […] Plasma samples were immediately frozen and stored at -80° C. pending analysis. The brains were removed, frozen, and stored at -80° C. awaiting analysis. […] Samples were spun at 15000 g for 20 minutes and the supernatants were transferred to fresh tubes. […] The tubes were vortexed for 30 seconds and frozen at -80° C. […] Samples were thawed at room temperature, sonicated at 80° C. for 15 minutes and frozen again. This cycle was repeated 3 times to ensure homogeneity and samples were returned to -80° C. pending analysis. Aβ levels were evaluated in plasma and brain samples by ELISA using Human Aβ40 and Aβ42 Fluorometric ELISA kits from Biosource (Cat. […] In short, samples were thawed at room temperature, sonicated for 5 minutes at 80° C. (sonication for brain homogenates; no sonication for plasma samples) and kept on ice. Aβ peptides were captured using 100 μl of the diluted samples to the plate and incubated without shaking at 4° C. overnight. The samples were aspirated and the wells were rinsed 4 times with wash buffer obtained from the Biosource ELISA kit. The anti-Aβ40 or anti-Aβ42 rabbit polyclonal antiserum (specific for the Aβ40 or Aβ42 peptide) was added (100 μl) and the plate was incubated at room temperature for 2 hours with shaking. The wells were aspirated and washed 4 times before adding 100 μl of the alkaline phosphatase labeled anti-rabbit antibody and incubating at room temperature for 2 hours with shaking. The plates were then rinsed 5 times and the fluorescent substrate (100 μl) was added to the plate. The plate was incubated for 35 minutes at room temperature and the plate was read using a titer plate reader at an excitation wavelength of 460 nm and emission at 560 nm. Compounds were scored based on their ability to modulate levels of Aβ peptides in the plasma and the cerebral soluble/insoluble levels in the brain. Levels of Aβ observed in the plasma and brain of treated animals were normalized using values from vehicle-treated (water) or methylcellulose-treated control groups and ranked according to the strength of the pharmacological effect. Increases in the levels of Aβ peptides are indicated using “+” symbols, while decreases in the levels of Aβ peptides are indicated using “-” symbols. The strongest effects are recorded as “+++” or “---” while the weakest are shown as “+” or “-”.

Aβ42 = target: T2, Aβ42 (Homo sapiens, UniProt P05067); experiment: Short term treatment of TgCRND8 mice: Aβ42 levels in plasma and brain (ELISA); assay type: in vivo, Mouse; conditions: for Aβ42 Change Insoluble / Aβ42 Change Soluble: brain homogenate; for Aβ42 Change: plasma, TgCRND8 mice
T2 construct: from tissue; host or cells: plasma and brain homogenate of TgCRND8 transgenic mice (hAPP transgene)
T2 sequence (P05067 672-713 limits assumed): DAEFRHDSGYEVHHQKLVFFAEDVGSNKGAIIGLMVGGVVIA
Text: as §1

[1] = methylcellulose group, Day 14, 250 mg/kg daily oral
[2] = methylcellulose group, Day 28, 250 mg/kg daily oral
[3] = vehicle group, Day 14, 250 mg/kg daily subcutaneous
[4] = vehicle group, Day 28, 250 mg/kg daily subcutaneous
[5] = vehicle (water) group, Day 14, 250 mg/kg daily subcutaneous
[6] = vehicle (water) group, Day 28, 250 mg/kg daily subcutaneous

T1 sequence (P05067 672-711 limits assumed): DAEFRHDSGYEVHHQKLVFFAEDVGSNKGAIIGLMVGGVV

| SMILES | Aβ40 Change Insoluble (Aβ40; [1]) | Aβ40 Change Soluble (Aβ40; [1]) | Aβ40 Change Insoluble (Aβ40; [2]) | Aβ40 Change Soluble (Aβ40; [2]) | Aβ42 Change Insoluble (Aβ42; [1]) | Aβ42 Change Soluble (Aβ42; [1]) | Aβ42 Change Insoluble (Aβ42; [2]) | Aβ42 Change (Aβ42; [1]) | Aβ42 Change (Aβ42; [2]) | Aβ42 Change Soluble (Aβ42; [2]) | Aβ40 Change (Aβ40; [1]) | other results |
| --- | --- | --- | --- | --- | --- | --- | --- | --- | --- | --- | --- | --- |
| CCCCCCCCCNCCCS(=O)(=O)O [DA, 3-nonylamino-1-propanesulfonic acid] | −−− (decreases of 39% or more are scored as “−−−”) | − (Decreases in the levels of Aβ of 5 to 19% are scored as “−”) | −− (decreases of 20 to 38% are scored as “−−”) | −− (decreases of 20 to 38% are scored as “−−”) | −− (decreases of 20 to 38% are scored as “−−”) | −− (decreases of 20 to 38% are scored as “−−”) | −− (decreases of 20 to 38% are scored as “−−”) | + (increases in the levels of Aβ (relative to untreated control) of 20 to 39% are scored as “+”) | + (increases in the levels of Aβ (relative to untreated control) of 20 to 39% are scored as “+”) |  |  |  |
| O=S(=O)(O)CCCNCCc1c[nH]c2ccccc12 [Compound BT, 3-{[2-(3-indolyl)ethyl]-amino}-1-propanesulfonic acid] | +++ (increases of 70% or higher are scored as “+++”) |  | ++ (increases of 40 to 69% are scored as “++”) | −− (decreases of 20 to 38% are scored as “−−”) |  | ++ (increases of 40 to 69% are scored as “++”) |  |  |  | ++ (increases of 40 to 69% are scored as “++”) |  |  |
| NCCSS(=O)(=O)O [BE] |  |  |  |  |  |  |  |  |  |  |  | Aβ40 Change Soluble (Aβ40; [3]): + (increases in the levels of Aβ (relative to untreated control) of 20 to 39% are scored as “+”); Aβ40 Change Insoluble (Aβ40; [4]): − (Decreases in the levels of Aβ of 5 to 19% are scored as “−”); Aβ40 Change Soluble (Aβ40; [4]): + (increases in the levels of Aβ (relative to untreated control) of 20 to 39% are scored as “+”); Aβ40 Change (Aβ40; [5]): ++ (increases of 40 to 69% are scored as “++”); Aβ40 Change (Aβ40; [6]): +++ (increases of 70% or higher are scored as “+++”); Aβ42 Change Insoluble (Aβ42; [3]): +++ (increases of 70% or higher are scored as “+++”); Aβ42 Change Soluble (Aβ42; [3]): +++ (increases of 70% or higher are scored as “+++”); Aβ42 Change Insoluble (Aβ42; [4]): +++ (increases of 70% or higher are scored as “+++”); Aβ42 Change Soluble (Aβ42; [4]): +++ (increases of 70% or higher are scored as “+++”); Aβ42 Change (Aβ42; [5]): +++ (increases of 70% or higher are scored as “+++”); Aβ42 Change (Aβ42; [6]): +++ (increases of 70% or higher are scored as “+++”) |
| CCCCCCCCNCCCS(=O)(=O)O [CZ, 3-octylamino-1-propanesulfonic acid] | −− (decreases of 20 to 38% are scored as “−−”) | − (Decreases in the levels of Aβ of 5 to 19% are scored as “−”) |  | − (Decreases in the levels of Aβ of 5 to 19% are scored as “−”) | −−− (decreases of 39% or more are scored as “−−−”) | −−− (decreases of 39% or more are scored as “−−−”) | −− (decreases of 20 to 38% are scored as “−−”) | − (Decreases in the levels of Aβ of 5 to 19% are scored as “−”) | − (Decreases in the levels of Aβ of 5 to 19% are scored as “−”) | − (Decreases in the levels of Aβ of 5 to 19% are scored as “−”) | − (Decreases in the levels of Aβ of 5 to 19% are scored as “−”) |  |
| O=S(=O)(O)CCCNC1CCCc2ccccc21 (centres unmarked) [Compound BU, 3-(1,2,3,4-tetrahydro-1-naphthylamino)-1-propanesulfonic acid] |  | − (Decreases in the levels of Aβ of 5 to 19% are scored as “−”) | −− (decreases of 20 to 38% are scored as “−−”) | −− (decreases of 20 to 38% are scored as “−−”) | −−− (decreases of 39% or more are scored as “−−−”) |  | −− (decreases of 20 to 38% are scored as “−−”) |  |  |  | − (Decreases in the levels of Aβ of 5 to 19% are scored as “−”) |  |

Reference: patent US7598269B2, “Methods and compositions for treating amyloid-related diseases” (Bellus Health (International) Limited, priority 2003, dated 2009)
